# Calls of active or inactive are those of the source.
# Experiments:
# [1] = molecular target: Neuropeptides B/W receptor type 1 (Homo sapiens, UniProt P48145); experiment: Fluorescence-based dose response cell-based high throughput screening assay to identify antagonists of the G-protein coupled receptor 7 (GPR7). [Related pubchem assays: 1952 (Screening assay (GPR7 antagonists).), 1880 (Summary AID.)]; assay type: functional
# [2] = molecular target: Melanin-concentrating hormone receptor 1 (Homo sapiens, UniProt Q99705); experiment: Fluorescence-based counterscreen for antagonists of the G-protein coupled receptor 7 (GPR7): cell-based high throughput dose response assay to identify antagonists of the melanin-concentrating hormone receptor 1 (MCHR1).; assay type: functional
# Melanin-concentrating hormone receptor 1, sequence (Q99705 whole entry): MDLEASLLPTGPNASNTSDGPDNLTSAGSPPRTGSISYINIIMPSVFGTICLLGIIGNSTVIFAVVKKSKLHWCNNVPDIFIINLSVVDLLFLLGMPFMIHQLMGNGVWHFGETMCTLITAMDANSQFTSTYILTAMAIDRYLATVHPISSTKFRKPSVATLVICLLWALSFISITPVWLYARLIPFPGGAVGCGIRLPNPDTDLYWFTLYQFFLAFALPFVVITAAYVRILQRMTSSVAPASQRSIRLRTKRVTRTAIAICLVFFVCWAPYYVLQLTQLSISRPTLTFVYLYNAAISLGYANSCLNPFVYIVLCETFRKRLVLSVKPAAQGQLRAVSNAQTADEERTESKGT
# [3] = NIH-3T3 fibroblast cytotoxicity, dose response, cytotoxicity control, cell-based, fluorescence, Alamar Blue, secondary assay (AID 2327); assay type: functional;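 note: NIH-3T3 mouse fibroblasts cultured with fluconazole at 8 µg/mL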
# [4] = molecular target: T1, Heat shock 70 kDa protein 1A (Homo sapiens, UniProt P0DMV8); experiment: Hsp70 inhibitors, biochemical, TR-FRET (AID 786)
# T1 sequence (P0DMV8 whole entry): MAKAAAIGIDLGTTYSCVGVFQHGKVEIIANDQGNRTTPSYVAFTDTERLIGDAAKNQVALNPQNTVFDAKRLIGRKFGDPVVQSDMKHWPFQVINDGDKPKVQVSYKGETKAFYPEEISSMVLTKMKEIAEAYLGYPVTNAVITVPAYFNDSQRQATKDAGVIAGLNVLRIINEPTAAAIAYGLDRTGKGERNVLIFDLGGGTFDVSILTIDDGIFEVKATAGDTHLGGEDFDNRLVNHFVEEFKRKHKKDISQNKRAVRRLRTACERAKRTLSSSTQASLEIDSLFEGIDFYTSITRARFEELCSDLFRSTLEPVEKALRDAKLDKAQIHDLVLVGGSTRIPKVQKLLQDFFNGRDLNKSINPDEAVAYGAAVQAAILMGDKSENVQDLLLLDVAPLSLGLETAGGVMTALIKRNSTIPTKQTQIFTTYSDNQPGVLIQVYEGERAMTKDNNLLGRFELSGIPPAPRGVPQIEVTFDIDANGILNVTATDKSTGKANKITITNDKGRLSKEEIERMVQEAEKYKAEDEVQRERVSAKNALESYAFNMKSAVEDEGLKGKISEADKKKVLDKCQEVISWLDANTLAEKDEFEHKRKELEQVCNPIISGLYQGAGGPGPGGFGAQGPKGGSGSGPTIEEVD
# HEK293 [5] = experiment: NOD1 signaling inhibitors, primary screen, cell-based, luminescence, uHTS (AID 1578); assay type: functional; settings: Homo sapiens
# HEK293 [6] = experiment: cells; assay type: functional, cell-based; settings: Homo sapiens
# [7] = molecular target: T1, Heat shock 70 kDa protein 1A; experiment: Hsp70 inhibitors, probe displacement, primary screen, biochemical, fluorescence polarization (AID 583)
# [8] = C. albicans growth with fluconazole, confirmation, fluorescence, retest (AID 2467); assay type: functional, cell-based
# HEK293 [9] = experiment: cells; assay type: functional, cell-based; settings: Homo sapiens; remark: listed apart in the source
# [10] = molecular target: Nucleotide-binding oligomerization domain-containing protein 2 (Homo sapiens, UniProt Q9HC29); experiment: NOD2 signaling inhibitors, cell-based, luminescence, uHTS, HEK293 (AID 1566); assay type: functional
# Nucleotide-binding oligomerization domain-containing protein 2, sequence (Q9HC29 whole entry, the tested form may be a part): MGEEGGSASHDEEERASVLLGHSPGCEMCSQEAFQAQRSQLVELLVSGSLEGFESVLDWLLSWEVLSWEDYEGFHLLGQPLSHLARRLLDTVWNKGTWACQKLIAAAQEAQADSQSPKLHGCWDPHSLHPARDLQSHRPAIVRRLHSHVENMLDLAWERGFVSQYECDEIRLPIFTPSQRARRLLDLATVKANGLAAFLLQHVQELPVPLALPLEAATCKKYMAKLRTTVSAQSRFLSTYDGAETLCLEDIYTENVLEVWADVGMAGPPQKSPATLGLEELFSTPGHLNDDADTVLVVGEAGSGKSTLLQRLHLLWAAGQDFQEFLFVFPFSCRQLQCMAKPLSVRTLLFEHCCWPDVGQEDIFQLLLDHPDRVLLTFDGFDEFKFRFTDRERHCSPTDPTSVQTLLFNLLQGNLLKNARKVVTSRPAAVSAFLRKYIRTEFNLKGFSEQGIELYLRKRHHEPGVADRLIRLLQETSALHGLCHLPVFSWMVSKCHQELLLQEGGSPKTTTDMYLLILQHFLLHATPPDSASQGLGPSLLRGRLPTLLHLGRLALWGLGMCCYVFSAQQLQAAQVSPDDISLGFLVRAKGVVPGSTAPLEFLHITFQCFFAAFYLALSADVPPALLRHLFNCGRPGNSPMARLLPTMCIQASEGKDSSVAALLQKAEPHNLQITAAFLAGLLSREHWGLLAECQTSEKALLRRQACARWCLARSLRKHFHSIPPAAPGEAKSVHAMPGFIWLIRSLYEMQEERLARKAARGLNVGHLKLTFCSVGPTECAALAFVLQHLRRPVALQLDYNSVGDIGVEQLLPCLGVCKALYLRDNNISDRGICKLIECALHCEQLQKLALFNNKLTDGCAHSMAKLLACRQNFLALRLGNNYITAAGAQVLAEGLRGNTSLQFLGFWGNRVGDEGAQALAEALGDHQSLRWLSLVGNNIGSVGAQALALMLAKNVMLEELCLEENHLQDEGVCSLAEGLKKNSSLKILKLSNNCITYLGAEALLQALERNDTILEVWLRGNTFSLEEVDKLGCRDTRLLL
# HEK293 [11] = experiment: NOD2 signaling inhibitors in MDP-stimulated cells, cell-based, uHTS, luminescence (AID 2001); assay type: functional; settings: Homo sapiens
# HEK293 [12] = experiment: cells; assay type: functional, cell-based; settings: Homo sapiens; remark: listed apart in the source
# Tumor necrosis factor = Tumor necrosis factor (Homo sapiens, UniProt P01375); experiment: TNFa-triggered NF-kB activation inhibitors, SAR follow-up, cell-based, revised (AID 2337); assay type: functional
# Tumor necrosis factor, sequence (P01375 whole entry, the tested form may be a part): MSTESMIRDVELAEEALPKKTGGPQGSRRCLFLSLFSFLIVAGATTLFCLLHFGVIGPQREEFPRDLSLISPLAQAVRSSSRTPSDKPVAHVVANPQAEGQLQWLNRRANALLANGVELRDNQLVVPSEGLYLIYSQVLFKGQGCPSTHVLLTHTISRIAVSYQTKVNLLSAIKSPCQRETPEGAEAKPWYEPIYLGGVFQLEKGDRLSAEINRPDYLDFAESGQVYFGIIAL
# [13] = molecular target: T2, Nucleotide-binding oligomerization domain-containing protein 1 (Homo sapiens, UniProt Q9Y239); experiment: NOD1 signaling inhibitors, SAR follow-up, revised (AID 2333); assay type: functional
# T2 sequence (Q9Y239 whole entry): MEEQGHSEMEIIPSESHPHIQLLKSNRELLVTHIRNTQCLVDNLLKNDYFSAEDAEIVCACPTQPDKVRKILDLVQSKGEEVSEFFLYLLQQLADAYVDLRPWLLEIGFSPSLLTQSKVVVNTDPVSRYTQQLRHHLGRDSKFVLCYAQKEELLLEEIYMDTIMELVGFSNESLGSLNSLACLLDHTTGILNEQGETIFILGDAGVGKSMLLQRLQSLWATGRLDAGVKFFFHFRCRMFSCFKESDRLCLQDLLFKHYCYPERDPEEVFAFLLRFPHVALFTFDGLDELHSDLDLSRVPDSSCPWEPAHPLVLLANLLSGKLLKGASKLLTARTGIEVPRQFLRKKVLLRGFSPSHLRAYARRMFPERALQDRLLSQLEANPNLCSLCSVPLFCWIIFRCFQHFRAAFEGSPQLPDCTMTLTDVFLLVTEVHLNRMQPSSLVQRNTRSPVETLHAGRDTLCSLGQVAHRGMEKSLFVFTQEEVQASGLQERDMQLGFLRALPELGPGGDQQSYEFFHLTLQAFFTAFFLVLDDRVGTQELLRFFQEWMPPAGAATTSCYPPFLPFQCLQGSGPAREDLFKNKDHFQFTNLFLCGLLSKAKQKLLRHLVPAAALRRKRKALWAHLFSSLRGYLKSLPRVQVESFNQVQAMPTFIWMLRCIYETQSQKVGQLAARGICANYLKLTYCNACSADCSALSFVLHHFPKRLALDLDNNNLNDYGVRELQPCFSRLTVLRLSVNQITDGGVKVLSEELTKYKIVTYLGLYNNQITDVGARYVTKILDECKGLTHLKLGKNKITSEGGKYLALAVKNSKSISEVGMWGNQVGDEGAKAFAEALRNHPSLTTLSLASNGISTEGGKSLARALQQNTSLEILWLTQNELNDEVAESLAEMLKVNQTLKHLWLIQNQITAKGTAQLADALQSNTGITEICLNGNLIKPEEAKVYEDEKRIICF
# HEK293 [14] = experiment: cells; settings: Homo sapiens
# [15] = test system: Streptococcus sp. 'group A'; experiment: growth inhibition of control SK(-) GAS strain, dose response, counter-screen for streptokinase expression inhibitor project, luminescence, kanamycin, BacTiterGlo, confirmation (AID 1900); assay type: functional, organism-based
# [16] = molecular target: Serine/threonine-protein phosphatase PP1-alpha catalytic subunit (Homo sapiens, UniProt P62136); experiment: PP1 phosphatase inhibitors, dose response, biochemical, fluorescence (AID 2403);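 note: phosphatase turnover of OMFP into fluorescent 3-O-methylfluorescein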
# Serine/threonine-protein phosphatase PP1-alpha catalytic subunit, sequence (P62136 whole entry): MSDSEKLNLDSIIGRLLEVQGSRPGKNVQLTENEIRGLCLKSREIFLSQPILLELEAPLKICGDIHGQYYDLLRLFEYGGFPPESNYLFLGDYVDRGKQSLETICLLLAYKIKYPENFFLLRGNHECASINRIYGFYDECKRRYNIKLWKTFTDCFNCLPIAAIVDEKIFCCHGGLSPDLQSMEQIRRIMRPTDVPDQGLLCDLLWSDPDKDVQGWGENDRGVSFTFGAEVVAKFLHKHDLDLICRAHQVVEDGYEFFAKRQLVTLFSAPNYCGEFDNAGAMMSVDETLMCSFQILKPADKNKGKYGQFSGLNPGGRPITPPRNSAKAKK
# [17] = molecular target: T3, Alkaline phosphatase, tissue-nonspecific isozyme (Homo sapiens, UniProt P05186)
# T3 sequence (P05186 whole entry): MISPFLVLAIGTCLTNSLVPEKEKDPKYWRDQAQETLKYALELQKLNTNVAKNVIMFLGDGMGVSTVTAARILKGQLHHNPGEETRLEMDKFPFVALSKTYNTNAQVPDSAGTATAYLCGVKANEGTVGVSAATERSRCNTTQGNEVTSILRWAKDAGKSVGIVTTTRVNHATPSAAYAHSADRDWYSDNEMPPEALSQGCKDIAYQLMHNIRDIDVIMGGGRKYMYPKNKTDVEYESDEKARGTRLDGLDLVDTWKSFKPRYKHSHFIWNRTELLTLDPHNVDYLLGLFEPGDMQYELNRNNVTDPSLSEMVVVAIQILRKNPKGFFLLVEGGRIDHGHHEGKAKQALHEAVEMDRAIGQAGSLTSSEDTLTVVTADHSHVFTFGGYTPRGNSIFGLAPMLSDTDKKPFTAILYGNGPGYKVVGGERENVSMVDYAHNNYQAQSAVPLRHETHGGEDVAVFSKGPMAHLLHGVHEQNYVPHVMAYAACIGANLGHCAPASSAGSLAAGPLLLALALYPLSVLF
# Streptokinase A = molecular target: T4, Streptokinase A (Streptococcus pyogenes serotype M1, UniProt P10520); experiment: S. pyogenes streptokinase expression inhibitors, potency, dose response, plasminogen activation absorbance, OD405 (AID 1914); assay type: functional, Streptococcus pyogenes M1 GAS;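 note: secreted streptokinase activity via plasminogen activation per viability signal from cell pellet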
# T4 sequence (P10520 whole entry): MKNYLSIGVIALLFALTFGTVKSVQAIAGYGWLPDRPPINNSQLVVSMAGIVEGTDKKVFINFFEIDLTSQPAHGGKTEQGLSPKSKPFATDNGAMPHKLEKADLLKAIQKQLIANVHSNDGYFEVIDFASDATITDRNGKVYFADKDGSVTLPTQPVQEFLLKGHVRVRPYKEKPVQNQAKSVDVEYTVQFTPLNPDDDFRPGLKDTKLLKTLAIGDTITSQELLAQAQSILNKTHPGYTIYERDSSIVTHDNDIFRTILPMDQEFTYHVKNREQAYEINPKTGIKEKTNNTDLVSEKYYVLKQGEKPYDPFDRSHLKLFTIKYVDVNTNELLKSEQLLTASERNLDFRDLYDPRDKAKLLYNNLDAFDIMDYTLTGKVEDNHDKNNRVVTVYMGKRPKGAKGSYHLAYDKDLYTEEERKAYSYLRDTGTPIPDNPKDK
# [18] = molecular target: Serine/threonine-protein phosphatase (Homo sapiens, UniProt Q9BPW0); experiment: Counterscreen for inhibitors of PP1: fluorescence-based biochemical high throughput dose response assay to identify inhibitors of Protein Phosphatase 5 (PP5). [Related pubchem assays: 2034 (Summary (PP5 inhibitors)), 1987 (PP5 inhibitors in singlate), 2235 (PP1 inhibitors in singlate)]
# Serine/threonine-protein phosphatase, sequence (Q9BPW0 whole entry): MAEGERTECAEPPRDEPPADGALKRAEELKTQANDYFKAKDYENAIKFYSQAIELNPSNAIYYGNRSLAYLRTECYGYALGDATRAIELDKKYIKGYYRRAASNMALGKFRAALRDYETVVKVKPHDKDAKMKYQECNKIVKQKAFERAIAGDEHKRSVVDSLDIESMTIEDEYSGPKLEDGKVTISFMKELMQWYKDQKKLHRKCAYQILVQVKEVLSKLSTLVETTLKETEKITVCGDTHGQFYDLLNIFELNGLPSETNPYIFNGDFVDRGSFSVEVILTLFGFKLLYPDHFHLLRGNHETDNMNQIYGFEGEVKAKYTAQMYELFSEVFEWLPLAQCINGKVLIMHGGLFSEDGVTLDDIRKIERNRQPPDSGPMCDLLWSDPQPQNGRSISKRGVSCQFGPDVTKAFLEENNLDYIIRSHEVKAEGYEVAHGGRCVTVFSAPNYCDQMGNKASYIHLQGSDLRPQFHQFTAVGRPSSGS
# Streptococcus = experiment: Group A Streptococcus viability loss, dose response, counter-screen for streptokinase expression inhibitor project, luminescence, BacTiterGlo (AID 1915); assay type: functional, organism-based;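 note: potency for reduction of bacterial viability or growth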
# Nonstructural protein 1 = Nonstructural protein 1 (Influenza A virus, UniProt Q194T2); assay type: functional, Influenza A virus (A/California/07/2009(H1N1))
# Nonstructural protein 1, sequence (Q194T2 whole entry): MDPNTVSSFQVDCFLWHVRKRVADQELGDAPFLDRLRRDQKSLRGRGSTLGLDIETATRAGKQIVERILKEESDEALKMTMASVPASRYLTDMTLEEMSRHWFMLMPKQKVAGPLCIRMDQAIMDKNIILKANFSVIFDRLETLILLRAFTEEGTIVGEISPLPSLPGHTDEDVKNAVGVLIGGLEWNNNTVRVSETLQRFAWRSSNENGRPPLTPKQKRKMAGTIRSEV
# Vero = Vero cell cytotoxicity, cytotoxicity control for flavivirus capping enzyme inhibitors (AID 588742); assay type: functional; settings: Chlorocebus sabaeus
# [19] = molecular target: Disintegrin and metalloproteinase domain-containing protein 17 (Homo sapiens, UniProt P78536); experiment: exosite inhibitors of ADAM17, dose response, biochemical (AID 743260)
# Disintegrin and metalloproteinase domain-containing protein 17, sequence (P78536 whole entry, the tested form may be a part): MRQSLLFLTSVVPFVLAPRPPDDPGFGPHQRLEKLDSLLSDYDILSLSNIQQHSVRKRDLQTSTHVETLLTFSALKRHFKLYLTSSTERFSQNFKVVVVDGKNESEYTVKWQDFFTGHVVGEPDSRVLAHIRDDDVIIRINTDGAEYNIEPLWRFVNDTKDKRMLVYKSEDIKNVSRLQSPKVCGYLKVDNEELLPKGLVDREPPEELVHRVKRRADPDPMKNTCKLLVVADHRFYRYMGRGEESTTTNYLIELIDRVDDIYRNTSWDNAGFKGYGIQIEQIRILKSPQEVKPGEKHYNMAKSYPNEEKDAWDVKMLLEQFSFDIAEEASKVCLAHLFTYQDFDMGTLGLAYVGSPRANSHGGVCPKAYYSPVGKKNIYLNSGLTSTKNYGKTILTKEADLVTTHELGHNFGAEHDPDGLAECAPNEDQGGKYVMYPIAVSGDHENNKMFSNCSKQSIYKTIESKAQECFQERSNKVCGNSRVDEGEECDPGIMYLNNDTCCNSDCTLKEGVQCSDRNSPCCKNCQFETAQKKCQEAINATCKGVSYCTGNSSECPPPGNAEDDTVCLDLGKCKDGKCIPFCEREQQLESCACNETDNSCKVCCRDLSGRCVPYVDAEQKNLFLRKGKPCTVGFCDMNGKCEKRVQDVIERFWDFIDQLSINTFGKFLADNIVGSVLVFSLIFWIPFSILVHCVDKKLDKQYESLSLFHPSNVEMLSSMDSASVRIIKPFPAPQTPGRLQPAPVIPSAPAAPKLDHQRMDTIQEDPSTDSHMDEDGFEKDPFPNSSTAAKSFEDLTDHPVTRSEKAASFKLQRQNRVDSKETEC
# Neuropeptides B/W receptor type 1, sequence (P48145 whole entry): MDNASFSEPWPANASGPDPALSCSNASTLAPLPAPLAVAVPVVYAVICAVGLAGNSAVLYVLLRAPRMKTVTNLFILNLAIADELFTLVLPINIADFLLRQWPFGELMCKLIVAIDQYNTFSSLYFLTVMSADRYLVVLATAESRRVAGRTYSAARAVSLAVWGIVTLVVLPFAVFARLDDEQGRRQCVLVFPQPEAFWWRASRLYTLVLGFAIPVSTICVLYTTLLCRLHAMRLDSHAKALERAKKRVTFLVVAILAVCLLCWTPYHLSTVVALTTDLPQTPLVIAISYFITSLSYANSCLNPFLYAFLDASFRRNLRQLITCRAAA
structure (smiles),measurement,setting,value
O=C(CCN(CCO)Cc1ccccc1)Nc1ccc(Br)cc1,IC50,[1],> 14.6 µM (not active)
same,IC50,[2],17.6 µM (not active)
O=[N+]([O-])c1ccc(Cl)c(/C=C/c2cc(C(F)(F)F)nc(O)n2)c1,EC50,[3],> 150 µM (inactive)
same,IC50,[4],> 100 µM (not active)
same,EC50,HEK293 [5],6.85 µM (active)
same,IC50,HEK293 [6],10.2 µM (active)
same,IC50,[7],46.4 µM (active)
same,EC50,[8],1.8 µM (active)
same,IC50,HEK293 [9],> 20 µM (inactive)
same,EC50,[10],> 20 µM (inactive)
same,IC50,HEK293 [11],11.8 µM (inactive)
same,IC50,HEK293 [12],> 20 µM (inactive)
same,IC50,Tumor necrosis factor,10.3 µM (active)
same,IC50,[13],4.4 µM (active)
same,IC50,HEK293 [14],> 20 µM (inactive)
Oc1c(C(c2ccccn2)N2CCCCC2)cc(Cl)c2cccnc12 (centres undefined),EC50,[15],6.02 µM (active)
same,IC50,[16],2.48 µM (active)
same,EC50,[17],81.1 µM (not active)
same,EC50,Streptokinase A,> 150 µM (not active)
same,IC50,[18],42.3 µM (not active)
same,EC50,Streptococcus,15.4 µM (active)
same,IC50,Nonstructural protein 1,8.02 µM (active)
same,CC50,Vero,31.4 µM (active)
same,IC50,[19],17 µM (inactive)

# From ChEMBL document CHEMBL1201862, “PubChem BioAssay data set” (2004)
